# In patent publication US10357481B2 (MERCK SHARP & DOHME CORP., priority 2015, dated 2019):
# Target: T1, human PDE2A1 (Homo sapiens, UniProt O00408)
# T1 construct: GST; purchased BPS Bioscience (San Diego, Calif.) 60020; host or cells: insect cells
# Test: IMAP FP PDE selectivity panel, human PDE2A1
# Type: biochemical
# Settings: Lab B; read-out: Human PDE2 Ki (nM) Lab B
# Description: Selectivity for PDE2, as compared to other PDE families, was assessed using the IMAP® technology. Human PDE10A2 enzyme was prepared from cytosolic fractions of transiently transfected HEK cells.
# Assays for PDE 1 through 11 were performed in parallel at room temperature in 384-well microtiter plates with an incubation volume of 20.2 μL. Solutions of test compounds were prepared in DMSO and serially diluted with DMSO to yield 30 μL of each of ten solutions differing by 3-fold in concentration, at 32 serial dilutions per plate. […] A Labcyte POD 810 (Labcyte, Sunnyvale, Calif.) was used to dispense 200 nL from each well of the titration plate to make eleven copies of the assay plate for each titration, one copy for each PDE enzyme. A solution of each enzyme (dilution from aliquots, sufficient to produce 20% substrate conversion) and a separate solution of FAM-labeled cAMP or FAM-labeled cGMP from Molecular Devices (Sunnyvale, Calif., product # R7506 or cGMP#R7508), at a final concentration of 50 nM were made in the assay buffer (10 mM Tris HCl, pH 7.2, 10 mM MgCl2, 0.05% NaN3 0.01% Tween-20, and 1 mM DTT). Note that the substrate for PDE2 is 50 nM FAM cAMP containing 1000 nM of cGMP. The enzyme and the substrate were then added to the assay plates in two consecutive additions of 10 μL and then shaken to mix. The reaction was allowed to proceed at room temperature for 60 minutes. A binding solution was then made from the kit components, comprised of 80% Solution A, 20% Solution B and binding reagent at a volume of 1/600 the total binding solution. The enzymatic reaction was stopped by addition of 60 μL of the binding solution to each well of the assay plate. The plates were sealed and shaken for 10 seconds. The plates were incubated at room temperature for one hour, then the parallel and perpendicular fluorescence was measured using a Tecan Genios Pro plate reader (Tecan, Switzerland). […] The intrinsic PDE2 inhibitory activity of a compound which may be used in accordance with the present invention may be determined by these assays.
# T1 sequence (O00408 1-920 isoform O00408-2): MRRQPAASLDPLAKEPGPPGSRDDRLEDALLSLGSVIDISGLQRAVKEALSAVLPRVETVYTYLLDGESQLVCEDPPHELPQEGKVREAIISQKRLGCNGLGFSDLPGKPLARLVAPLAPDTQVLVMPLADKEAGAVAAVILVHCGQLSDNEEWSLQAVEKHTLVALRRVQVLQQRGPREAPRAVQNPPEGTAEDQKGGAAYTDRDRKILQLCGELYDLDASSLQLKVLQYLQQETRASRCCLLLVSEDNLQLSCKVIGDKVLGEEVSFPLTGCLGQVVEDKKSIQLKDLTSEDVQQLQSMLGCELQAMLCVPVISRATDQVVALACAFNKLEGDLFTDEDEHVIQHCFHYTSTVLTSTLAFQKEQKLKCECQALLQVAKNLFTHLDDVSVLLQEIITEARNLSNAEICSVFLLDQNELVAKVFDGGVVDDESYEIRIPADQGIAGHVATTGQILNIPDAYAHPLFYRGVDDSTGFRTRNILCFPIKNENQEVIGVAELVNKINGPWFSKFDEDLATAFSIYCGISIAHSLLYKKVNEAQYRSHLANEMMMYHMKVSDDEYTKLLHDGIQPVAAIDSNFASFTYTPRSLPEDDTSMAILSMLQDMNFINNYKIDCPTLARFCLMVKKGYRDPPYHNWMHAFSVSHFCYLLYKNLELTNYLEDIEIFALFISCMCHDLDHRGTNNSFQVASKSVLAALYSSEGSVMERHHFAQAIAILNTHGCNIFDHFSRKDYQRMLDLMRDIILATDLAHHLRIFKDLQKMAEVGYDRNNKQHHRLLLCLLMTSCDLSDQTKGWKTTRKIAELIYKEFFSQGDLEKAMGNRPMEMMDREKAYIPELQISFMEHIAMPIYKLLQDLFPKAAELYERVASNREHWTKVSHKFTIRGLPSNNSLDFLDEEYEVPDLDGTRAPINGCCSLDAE
row,SMILES,Ki [nM]
1,"CC(C)(O)C(Nc1cc(C(F)(F)F)nc2ncnn12)c1ccc(C(F)(F)F)cc1Cl (single isomer, unassigned) [Example 159, (1S or R)-1-[2-Chloro-4-(trifluoromethyl)phenyl]-2-methyl-1-{[5-(trifluoromethyl)[1,2,4]triazolo[1,5-a]pyrimidin-7-yl]amino}propan-2-ol]",> 2960
2,"CC(C)(O)C(Nc1cc(C(F)F)nc2ncnn12)c1ccc(OC(F)F)c(F)c1 (single isomer, unassigned) [Example 189, (1S or R)-[4-(Difluoromethoxy)-3-fluorophenyl]-1-{[5-(difluoromethyl) [1,2,4]triazolo [1,5-a]pyrimidin-7-yl]amino}-2-methylpropan-2-ol]",17
3,"CC(C)(O)C(Nc1cc(C(F)F)nc2ncnn12)c1ccc(C(F)(F)F)c(F)c1 (single isomer, unassigned) [Example 228, (S)- or (R)-1-(5-(Difluoromethyl)-[1,2,4]triazolo [1,5-a]pyrimidin-7-ylamino)-1-(3-fluoro-4-(trifluoromethyl)phenyl)-2-methylpropan-2-ol]",> 2960
4,"CC(C)(O)C(Nc1cc(C2CC2)nc2ncnn12)c1ccc(S(F)(F)(F)(F)F)cc1 (single isomer, unassigned) [Example 145, (1R or S)-1-[(5- Cyclopropyl [1,2,4]triazolo [1,5-a]pyrimidin-7-yl)amino]-2-methyl-1-[4-(pentafluoro-λ^6-sulfanyl)phenyl]propan-2-ol]",25
5,"CC(C)(O)[C@@H](Nc1cc(C(F)F)cc2ncnn12)c1ccc(S(F)(F)(F)(F)F)cc1 [Example 282, (1S)-1-{[7-(Difluoromethyl) [1,2,4]triazolo[1,5-a]pyridin-5-yl]amino}-2-methyl-1-[4-(pentafluoro-λ^6-sulfanyl)phenyl]propan-2-ol]",7.8
6,"Cc1cc(NC(c2ccc(C(C)(C)C)cc2)C(C)(C)O)n2ncnc2n1 (single isomer, unassigned) [Example 107]",13
7,"Cc1cc(NC2(c3ccc(C(F)(F)F)c(F)c3)CC2)n2nc(N(C)C)nc2n1 [Example 256, N^7-{1-[3-Fluoro-4-(trifluoromethyl)phenyl]cyclopropyl}-N^2,N^2,5-trimethyl[1,2,4]triazolo[1,5-a]pyrimidine-2,7-diamine]",608
8,"CCC(O)(CC)C(Nc1cc(C)nc2ncnn12)c1ccc(C(F)(F)F)c(F)c1 (single isomer, unassigned) [Example 215, (R)- or (S)-3-((3-Fluoro-4-(trifluoromethyl)phenyl)(5-methyl-[1,2,4]triazolo [1,5-a]pyrimidin-7-ylamino)methyl) pentan-3-ol]",> 2960
9,"Cc1cc(N[C@H](CC(C)(C)O)c2ccc(C(F)(F)F)c(F)c2)n2ncnc2n1 [Example 152, (4R)-4-[3-Fluoro-4-(trifluoromethyl)phenyl]-2-methyl-4-[(5-methyl[1,2,4]triazolo[1,5-a]pyrimidin-7-yl)amino]butan-2-ol]",766
10,"OCc1cc(NC2(c3ccc(C(F)(F)F)c(F)c3)CC2)n2ncnc2c1 [Example 266, (5-((1-(3-Fluoro-4-(trifluoromethyl)phenyl)cyclopropyl)amino)-[1,2,4]triazolo[1,5-a]pyridin-7-yl)methanol]",13
11,"CC(C)c1cc(NC(c2ccc(OC(F)(F)F)cc2F)C(C)(C)O)n2ncnc2n1 (single isomer, unassigned) [Example 137, (1R or S)-1-[2-Fluoro-4-(trifluoro-methoxy)phenyl]-2-methyl-1-{[5-(1-methylethyl) [1,2,4]triazolo [1,5-a]pyrimidin-7-yl]amino} propan-2-ol]",436
12,"CC(C)(O)C(Nc1cc(C2CC2)nc2ncnn12)c1ccc(OC(F)(F)F)cc1F (single isomer, unassigned) [Example 143, (1R or S)-1-[(5- Cyclopropyl [1,2,4]triazolo [1,5-a]pyrimidin-7-yl)amino)-1-[2-fluoro-4-(trifluoro-methoxy)phenyl]-2-methylpropan-2-ol]",97
